# Several values for one entry are separate records, joined by “and”; a condition that tells them apart may be missing. Equal entries are not always repeated. Entries after “also recorded” stand apart in the source; their conditions may differ.
# How the values were obtained:
# [1] = tested on: A. gambiae; assay: Membrane feeding assay, A. gambiae; format: in vivo, Anopheles gambiae; conditions: for feeding inhibition at maximum dose tested: maximum dose 20 μM, with 20 μM ATP
# Method: Experiments with A. gambiae and A. stephensi were made in a climate chamber at 28° C. and 80% RH during the last 6 hours of scotophase. As a sugar meal can interfere with the blood meal by reducing the number of females that feed, the sucrose solution supplied in rearing cages to mosquitoes employed for feeding experiments was reduced to 5%. […] The 5% sucrose solution was presented to mosquitoes from emergence on four 1 cm diam. cotton dental rolls (Hartmann A G, Neuhausen, Switzerland) inserted in 10 ml upturned glass vials placed in holes at each corner of the rearing cage ceiling. Cotton rolls were turned daily in vials and renewed every two days. Mosquitoes were not fed blood and were deprived of sucrose 17 to 20 hours before experiments. Thirty min before a feeding experiment, between 10-25, 6-day-old females that responded to activation by human breath were removed with a mouth aspirator from the rearing cage wall and placed in polystyrol cylinders with the floor cut out (10 cm dm×15 cm high; Semadeni, Ostermundigen, Switzerland) that served as feeding cages. Each cage was covered with mosquito netting at one end and a soft polyurethane lid at the other.
# Mosquitoes were fed for 30 min using a feeding system (Hemotek®, Hemotek Ltd, Blackburn, UK) consisting of 3.5 ml stainless steel reservoirs 37 mm in diameter covered with a 60-90 μm thick silicone-impregnated membrane (Kröber and Guerin, 2007 in “Feeding assays for hard ticks”, Trends in parasitology 23, 445-449; doi 10.1016/j.pt.2007.07.010). Feeding reservoirs reached a temperature of 37° C. within 10 min and were placed on the netting of feeding cages. Mosquitoes were activated using a 200 ms pulse of pure CO2 (volume 6.25 ml) from a pressurised cylinder (Carbagas, Switzerland) using a solenoid valve that caused the CO2 level in the feeding cage to rise to at least 1,500 ppm. Between 3 and 4 sets of 10 feeding cages held in a custom-built Ertacetal® POM frame were tested per day, depending of the number of female mosquitoes available from the colony.
# All compounds were tested in a mosquito feeding solution (FS) consisting of 25 mM dextrose, 25 mM NaCl buffered with 8.93 mM NaHCO3 adjusted to pH 7.4. Feeding responses of A. gambiae and A. stephensi to ATP as a function of dose were tested with between 7 to 10 feeding cages per dose. Each feeding experiment with an antagonist systematically included a treatment containing the FS as negative control along with a treatment containing the FS with […] added as positive control for A. gambiae and with […] added as positive control for A. stephensi. These positive and negative controls permitted to monitor any effect of experimental day on feeding responses as a function of dose for antagonists that were recorded over several days. […] Four to 10 cages each with 10 to 29 mosquitoes were tested per antagonist dose. […] The number of feeding cages used to test other compounds and their mixtures as feeding stimulants or as feeding inhibitors is listed on Table 6. The percentage of fed mosquitoes was estimated by visual inspection of abdominal distention that is indicative of engorgement.
# Pairwise comparisons of A. gambiae electrophysiological (EP) responses to ATP and adenosine alone and combined with a given dose of PR antagonist, EP responses to ATP alone and combined with a given dose of a metal modulator, and EP responses to ATP prior to and after exposure of a sensillum to a given dose of a PR antagonist were made with a one-tailed Wilcoxon signed-rank test for data showing a non-normal distribution, with a paired Student's t-test for normally distributed data showing homogeneous variance and with a Welch's t-test for normally distributed data showing non-homogeneous variance. […]
# [2] = tested on: A. gambiae labellum sensilla (purine-sensitive cell); assay: Tip recording of action potentials from A. gambiae labellum sensilla in response to agonists; format: cell-based, Anopheles gambiae; conditions: for EC50: Anopheles gambiae, read-out: ED50 (the source's name); for EC50 / ED95 / dose at which the unsurmountable asymptote is reached: spike frequency as a function of dose; for spikes recorded at the asymptote: at 250 pM; for Mean spike frequency per 2 s (±SEM): each compound at 200 pM alone and in binary mixtures, T1 labellum sensilla
# Method: (§1) The tip recording method was used to record action potentials (spikes) from sensory cells in sensilla on A. gambiae labellum lobes.
# (§2) Sensilla were exposed to test compounds and PR antagonists for ca. 2-4 s and spikes were counted in the first 2 s of recordings. Up to 4 test compounds were tested on a sensillum to evaluate potential agonists, each presented at 200 pM. To study responses as a function of dose for agonists ATP, adenosine, AMP, AMP-CPP and ATP+adenosine, up to 7 recordings were made at increasing doses of agonist from the same sensillum. Unless otherwise stated, recordings were made throughout from 4 to 16 sensilla from individual 4-6-day-old females per dose of agonist, antagonist and metal ion modulator. For example, a response curve established over 6 doses of an antagonist using 8 sensilla per dose involved recording from a sensillum of 48 separate mosquitoes. A given dose of a PR antagonist or metal ion modulator was only presented once to a sensillum. Two-second recordings were imported as ASCII files into DataView software for analysis of spike amplitude. Differences in spike amplitude generated by stimulation of one 8v sensillum/female with 1 mM sucrose (n=294 spikes from 6 females) 200 pM adenosine (n=207 spikes from 7 females) and 200 pM ATP (n=192 spikes from 7 females) were compared by measuring the spike amplitude in mV between the highest point of depolarisation and the lowest point of hyperpolarisation.
# Spike counts elicited by 200 pM doses of nucleotides, nucleosides, purines, pyrimidines and water were log(x+1.25)-transformed (optimal constant numerically established using a maximum likelihood procedure) and analysed using a linear mixed effects model (function ‘lme’ in “nlme” R package) with mosquito number as random effect. To model inhomogeneous variance in residuals (near normal distribution, P=0.045, Shapiro-Wilk test, W=0.98604), the variance function ‘varldent’ in the “nlme” package that allows for different variance per treatment was used. Statistical differences were identified between treatments using post-hoc-Tukey test with contrasts adjusted by Holm's family wise error compensation (FWEC). Spike counts elicited by ATP, AMP, adenosine and their binary mixtures were analysed using a generalised linear model (LM) of log (x+10) transformed data and differences were identified using post-hoc-Tukey test with Holm's FWEC.
# Log transformed spike amplitudes generated in response to ATP, adenosine and sucrose were compared using linear mixed effects models using the ‘lme’ function of the “nlme” R package, with spike amplitude as the dependent variable, treatment as the fixed factor and mosquito number within treatment as random effect. Residuals were normally distributed (Shapiro-Wilk test P>0.0563) and their variances homogeneous (Bartlett test P>0.9799); P-values were corrected using Holm's FWEC.
# Dose-response models fitted to mosquito data were generated using the ‘drm’ command in the “drc” R package (version 2.5-12). Best fitting models (goodness of fit) and effects of dose of a compound were assessed using, respectively, ‘modelFit’ and ‘noEffect’ functions in the same R package. A 3-parameter logistic model (L3) was fitted to spike-counts recorded to increasing doses of adenosine, AMP, ATP and AMP-CPP. Spike numbers recorded in response to 200 pM ATP with increasing doses of PR antagonists added were analysed using a 4-parameter log-logistic model (LL.4) for A-317491 and spinorphin, using a 4-parameter Weibull model (W1.4) for PPADS, RB-2 and TMP, and using a 3-parameter log-logistic model (LL.3) for suramin. An L3 model was fitted to proportions of females feeding on increasing doses of ATP. Feeding rates on 20 μM ATP with increasing doses of a PR antagonist added were analysed using a 4-parameter log-logistic model (LL.4) with the median of the positive control (20 μM ATP) fixed as the upper asymptote. […]
# [3] = tested on: A. gambiae mouthpart ATP-sensitive receptor; assay: Electrophysiological response to 200 pM ATP with PR antagonist admixed; format: cell-based, Anopheles gambiae; conditions: for ID50/ID95: block at maximum dose tested: admixed to 200 pM ATP
# Method: as §1, §2
# Pairwise comparisons of A. gambiae electrophysiological (EP) responses to ATP and adenosine alone and combined with a given dose of PR antagonist, EP responses to ATP alone and combined with a given dose of a metal modulator, and EP responses to ATP prior to and after exposure of a sensillum to a given dose of a PR antagonist were made with a one-tailed Wilcoxon signed-rank test for data showing a non-normal distribution, with a paired Student's t-test for normally distributed data showing homogeneous variance and with a Welch's t-test for normally distributed data showing non-homogeneous variance. Effects on feeding of adding ATP, AMP-CPP, adenosine, ATP+adenosine, AMP and ADP-βS, CPT with ATP or adenosine, TMP with ATP+adenosine, TMP+CPT with ATP+adenosine to the FS for A. gambiae, and of adding PR antagonists with ATP to the FS for A. stephensi were compared using one-tailed Mann-Whitney U-test or Welch's t-test, depending on data distribution; Holm's FWEC was applied where treatment comparisons involved the same positive control. Percent feeding inhibition induced by PR antagonists in A. stephensi was calculated using Abbott's formula.
# Dose-response models fitted to mosquito data were generated using the ‘drm’ command in the “drc” R package (version 2.5-12). Best fitting models (goodness of fit) and effects of dose of a compound were assessed using, respectively, ‘modelFit’ and ‘noEffect’ functions in the same R package. A 3-parameter logistic model (L3) was fitted to spike-counts recorded to increasing doses of adenosine, AMP, ATP and AMP-CPP. Spike numbers recorded in response to 200 pM ATP with increasing doses of PR antagonists added were analysed using a 4-parameter log-logistic model (LL.4) for A-317491 and spinorphin, using a 4-parameter Weibull model (W1.4) for PPADS, RB-2 and TMP, and using a 3-parameter log-logistic model (LL.3) for suramin. An L3 model was fitted to proportions of females feeding on increasing doses of ATP. Feeding rates on 20 μM ATP with increasing doses of a PR antagonist added were analysed using a 4-parameter log-logistic model (LL.4) with the median of the positive control (20 μM ATP) fixed as the upper asymptote. Response dynamics in 3-parameter models are related to the slope b, the upper asymptote, and inflexion point of the model e (the ED50 value), whereas 4 parameter models also include the lower asymptote parameter. […]
structure (smiles),measurement,setting,value
"Nc1ncnc2c1ncn2[C@@H]1O[C@H](CO)[C@@H](O)[C@H]1O [Adenosine, 9-β-D-Ribofuranosyladenine]",% Engorged mosquitoes,[1]; 20 μM in feeding solution,39.1 ± 5.7%
same,% Engorged mosquitoes,[1]; 1 mM in feeding solution,64.4 ± 3.2%
same,spike frequency,"[2]; 50 pM alone, mixture 50 pM of each agonist",1.25±0.62 /2s
same,"EP response, spike frequency",[2]; 200 pM,30.23±3.02 spikes/2s
same,EC50,[2],~0.12 nM
same,spikes recorded at the asymptote,[2],approximately 30 spikes/2 s
same,Mean spike frequency per 2 s (±SEM),[2],27.14 per 2 s
same,ED95,[2],~0.2 nM
same,dose at which the unsurmountable asymptote is reached,[2],250 pM
"Nc1ncnc2c1ncn2[C@H]1C[C@H](O)[C@@H](COP(=O)(O)OP(=O)(O)OP(=O)(O)O)O1 [dATP, 2′-Deoxyadenosine 5′-triphosphate]",EP response in words,[2]; 200 pM,strongly reduced activity
"Cc1nc(N=Nc2ccc(C(=O)O)cc2)c(COP(=O)(O)O)c(C=O)c1O [MRS 2159, [2-[(4-carboxyphenyl)diazenyl]-4-formyl-6-methyl-5-oxidopyridin-3-yl]methyl phosphate]","% fed mosquitoes (mean ± s.e.m.), ATP + antagonist",[1]; antagonist 20 μM + 20 μM ATP,79.19%
same,feeding inhibition at maximum dose tested,[1],No feeding inhibition
same,"Mean no. of spikes per 2 s (±s.e.m.), ATP + antagonist",[3]; antagonist 1000 nM + 200 pM ATP,27.14 spikes per 2 s
same,ID50/ID95: block at maximum dose tested,[3]; maximum dose 1 μM,No block (1 μM)
"Nc1ncnc2c1ncn2C1OC(COP(=O)(O)CP(=O)(O)OP(=O)(O)O)C(O)C1O (stereo not drawn) [AMP-CPP, α,β-Methyleneadenosine-5′-triphosphate]",% Engorged mosquitoes,[1]; 20 μM in feeding solution,84.35% and 84.3 ± 6.8%
same,ED95,[2],0.05 nM
same,dose at which the unsurmountable asymptote is reached,[2],80 pM
"Fc1ccc([C@@H]2CCNC[C@H]2COc2ccc3c(c2)OCO3)cc1 [Paroxetine, (3S,4R)-3-(1,3-benzodioxol-5-yloxymethyl)-4-(4-fluorophenyl)piperidine]","% fed mosquitoes (mean ± s.e.m.), ATP + antagonist",[1]; antagonist 20 μM + 20 μM ATP,62.72%
same,feeding inhibition at maximum dose tested,[1],No feeding inhibition
same,"Mean no. of spikes per 2 s (±s.e.m.), ATP + antagonist",[3]; antagonist 2000 nM + 200 pM ATP,27.6 spikes per 2 s
same,ID50/ID95: block at maximum dose tested,[3]; maximum dose 2 μM,No block (2 μM)
"Nc1c(S(=O)(=O)O)cc(Nc2ccc(Nc3nc(Cl)nc(Nc4cccc(S(=O)(=O)O)c4)n3)c(S(=O)(=O)O)c2)c2c1C(=O)c1ccccc1C2=O [RB-2, 1-amino-4-[[4-[[4-chloro-6-[[3 (or 4)-sulfophenyl]amino]-1,3,5-triazin-2-yl]amino]-3-sulfophenyl]amino]-9,10-dihydro-9,10-dioxo-2-anthracenesulfonic acid]","effect on feeding on solution containing ATP, in words","[1]; 20 μM ATP, CPT at 10 μM",inhibited feeding
same,"% fed mosquitoes (mean ± s.e.m.), ATP + antagonist",[1]; antagonist 0.1 μM + 20 μM ATP,32.88%
same,"persistent antagonism to ATP presented approximately 2 min later, in words",[3]; 200 pM ATP,not
same,"effect on EP response to ATP, in words","[3]; 200 pM ATP, suramin at 1 nM",inhibited
same,"Mean no. of spikes per 2 s (±s.e.m.), ATP + antagonist",[3]; antagonist 50 nM + 200 pM ATP,12.83 spikes per 2 s
same,ID95 in nM (±s.e.m.),[3]; increasing doses admixed to 200 pM ATP,113.02 nM
"Nc1ncnc2c1ncn2[C@H]1CC[C@@H](COP(=O)(O)OP(=O)(O)OP(=O)(O)O)O1 [ddATP, 2′,3′-Dideoxyadenosine-5′-triphosphate]",EP response in words,[2]; 200 pM,strongly reduced activity
"Nc1ncnc2c1ncn2[C@@H]1O[C@H](COP(=O)(O)OP(=O)(O)O)[C@@H](O)[C@H]1O [ADP, Adenosine 5′-diphosphate]",EP response in words,[2]; 200 pM,no activity; also recorded: failure
"Nc1ncnc2c1ncn2[C@@H]1O[C@H](COP(=O)(O)O)[C@@H](O)[C@H]1O [AMP, Adenosine 5′-monophosphate]",% Engorged mosquitoes,[1]; 20 μM in feeding solution,38.3 ± 5.1%
same,EC50,[2],~0.12 nM
same,spikes recorded at the asymptote,[2],approximately 30 spikes/2 s
same,Mean spike frequency per 2 s (±SEM),[2],28.58 per 2 s
same,ED95,[2],~0.2 nM
same,dose at which the unsurmountable asymptote is reached,[2],250 pM
